# Experimental data as given in patent US4241184A, “Secondary alcohol dehydrogenase enzyme and use thereof” (priority 1979, dated 1980).
# Read-outs that look alike come from different tables or passages of the source.
# Tests used:
# [1] = tested on: P(40) particulate fraction of Methylosinus sp. (CRL-15, NRRL B-11,202); experiment: Oxidation of n-alkenes and n-alkanes by P(40) particulate fraction; type: biochemical; details: for Rate of Product Formation: substrate oxidized to its epoxide or alcohol, 30° C.
# [2] = tested on: cell-free particulate fractions derived from the methylotrophic microorganisms; experiment: Conversion of C3-C6 n-alkanes to sec. alcohols by cell-free particulate fractions: inhibitors and electron donors; type: biochemical
# From the text: The conditions for preparing the cell suspensions or the cell-free particulate fractions from methane-grown methylotroph microorganisms is the same as described above. […] Tables XXV and XXVI show the conversion of C3 -C6 n-alkanes to the corresponding secondary alcohols using cell suspensions and cell-free particulate fractions, respectively, of methane-grown methylotroph microorganisms.
# [3] = tested on: Methylosinus trichosporium OB3b (NRRL B-11,196); experiment: Stoichiometry of the epoxidation of propylene by a cell-suspension; type: cell-based; details: 3 min., 3.1 mg. protein, 3.6 μmoles propylene
# Experimental: As a comparison the stoichiometry of the epoxidation of propylene by a cell-suspension of Methylosinus trichosporium OB3b (NRRL B-11,196) was determined as follows. The reaction mixture (3.0 ml.) contained 0.05 M sodium phosphate buffer, pH 7.0 and 3.6 μmoles of propylene. The reaction was initiated by the injection of 0.1 ml. of cell-suspension (3.1 mg. protein). A correction was made for the endogenous consumption of oxygen. The amount of oxygen consumed during the reaction (3 min.) was determined polarographically with a Clark oxygen electrode. The propylene consumed and the propylene oxide formed was estimated by gas chromatography. The propylene consumed was 0.29 μmoles, the oxygen consumed was 0.30 μmoles and the propylene oxide formed was 0.28 μmoles.
# [4] = tested on: P(40) particulate fraction of Methylosinus sp. (CRL-15, NRRL B-11,202); experiment: Stoichiometry of propylene epoxidation and methane hydroxylation by P(40) fraction; type: biochemical; details: 5.0 μmoles substrate
# Experimental: The particulate P(40) fraction of Methylosinus sp. (CRL-15, NRRL B-11,202) was used to determine the stoichiometry of hydroxylation and epoxidation reactions. The stoichiometry of methane or propylene-dependant NADH oxidation, oxygen consumption and product formation was approximately 1:1:1 Table XIV. This is consistent with methane or propylene oxygenation being catalyzed by a mono-oxygenase.
# ^a Under identical condition of reaction, the estimation of NADH
# oxidized was carried out spectrophotometrically, the estimation of oxygen
# consumed was measured polarographically, and estimation of product formed
# was carried out by gas chromatography.
# [5] = Oxidation of methane and lower alkenes by washed cell suspensions of methane-grown methylotrophic strains; type: cell-based; details: methane-grown methylotrophic microorganisms
# Experimental: The isolates had been maintained on agar plates under an atmosphere of methane and air having a 1:1 v/v gas ratio which had been transferred every two weeks. The gaseous phase of the inoculated flasks was then replaced with a gas mixture comprised of methane and air having a ratio of 1:1 on a v/v basis.
# The cells were harvested by centrifugation at 10,000×g. at 4° C. for 30 minutes. The cell pellet was washed twice with a 0.15 M phosphate buffer at a pH of 7.0 (containing 0.002 M MgCl2). The washed cells were then suspended in a 0.15 M phosphate buffer at pH 7.0.
# A 0.5 ml sample of each washed cell suspension (2 mg cells) was put into 10 ml vials at 4° C. which were sealed with a rubber cap. The gaseous phase of the vials was removed with vacuum and then was replaced with a gas mixture of the oxidative substrate (e.g., methane) and oxygen at a 1:1 v/v ratio. The vials were then incubated at 30° C. on a rotary shaker at 300 rpm. Samples of product (3 μl) were withdrawn periodically with a microsyringe and the products were analyzed by gas chromatography (ionization flame detector column).
# The newly discovered and isolated microorganism strains of the present invention were each grown aerobically in the presence of methane in the manner described above. […]
# [6] = tested on: Methylobacter vinelandii (CRL M5Y NRRL B-11,218); experiment: Microbiological oxidation of cyclic hydrocarbons by methane-grown washed cells; type: cell-based
# From the text: Methylobacter vinelandii (CRL M5Y NRRL B-11,218) was aerobically grown in a methane-containing nutrient medium in the manner described in Example 1 and the methane-grown washed cells were contacted under aerobic conditions with cyclohexane, benzene and toluene.
# [7] = tested on: secondary alcohol dehydrogenase; experiment: Purified yeast secondary alcohol dehydrogenase: substrates, electron acceptors, inhibitors, stoichiometry; type: biochemical, Pichia sp. NRRL Y-11,328
# Experimental: Large scale cultures of Pichia sp. NRRL Y-11,328 were grown with aeration at 30° C. in a 14-liter New Brunswick f fermentor in a mineral salt medium containing methanol (0.4%, v/v) as the sole carbon source. The cells (200 g., wet weight) were suspended in […] sodium phosphate buffer, pH 7.0, containing 1 mM dithiothreitol (buffer A), and crude extracts were prepared as described previously. To the crude extracts, 18 ml. of protamine sulfate solution [2% solution in 0.1 M tris (hydroxymethyl) aminomethane (tris) base] was added dropwise with continuous stirring. After standing for 30 min., the extracts were centrifuged at 20,000×g. for 60 min. The supernatant solution was fractionated with solid ammonium sulfate. Extracts were brought to 50% of saturation with respect to ammonium sulfate by addition of 313 g. of the salt per liter of extract. Precipitated proteins was removed by centrifugation, and 137 g. of ammonium sulfate was added per liter of the supernatant liquid to bring it to 70% of saturation. Material precipitating between 50 and 70% of saturation was collected by centrifugation and dissolved in buffer A. This preparation was dialyzed overnight against buffer A, and the dialyzed material was applied to a DEAE-cellulose column (5×40 cm) that had been equilibrated with buffer A. The sample was washed with 200 ml. of buffer A and eluted with 2 liters of buffer A that contained NaCl in a linear gradient running from a concentration of 0 to 0.5 M. Fractions of 15 ml. were collected. Fractions containing secondary alcohol dehydrogenase activity were pooled and were termed DEAE-cellulose eluate. The DEAE-cellulose eluate was concentrated by ammonium sulfate fractionation.
# Secondary alcohol dehydrogenase activity was measured spectrophotometrically at 340 nm with a NAD^+ as an electron acceptor. The reaction mixture, in a total 3.0 ml., contained 50 mM phosphate buffer, pH 8.0, 5μ moles NAD^+, crude extracts, and subtrate. The reactions were started by addition of 100 μl of 0.1 M substrate and the rate of NAD^+ reduction was measured. Protein concentration was determined by the method of Lowry et al.
# The substrate specificity of the purified secondary alcohol dehydrogenase was examined spectrophotometrically.
# [8] = tested on: cell-free extracts of strain ATCC-21439
# Experimental: The reaction mixtures 3 ml (1.0 mg protein) were incubated at 30°
# C. for 10 min. (exp. 1) and for 20 min. (exp. 2) in the presence of 1.0
# ^a Determined gas chromatographically.
# ^b Determined fluorescence spectrophotometrically. Endogenous
# consumption of NAD was corrected.
# [9] = tested on: secondary alcohol dehydrogenase (SADH); experiment: Purified secondary alcohol dehydrogenase activity (formation of reduced NAD); type: biochemical, Pseudomonas sp. ATCC 21439
# Experimental: Secondary alcohol dehydrogenase (SADH) from an obligate methanol utilizer, Pseudomonas sp. ATCC 21439 was purified as follows. […] 0.05 M sodium phosphate buffer, pH 7.0 with 0.5 mM dithiothretol (buffer A) and were disrupted sonically (5×1 min.). The crude extract was separated by centrifugation. The crude extract was heat-treated at 50° C. in a water bath for 10 minutes. The resulting precipitate was removed by centrifugation. To the supernatant solution, 25 ml of protamine sulfate solution (2% solution in 0.1 M Tris base) was added dropwise with continuous stirring. After standing for 30 minutes, the extract was centrifuged. The supernatant solution was fractionated with solid ammonium sulfate. The material precipitating between 30 and 60% saturation was collected and was dialized overnight against buffer A. The The dialized material was applied to a DEAE-cellulose column (3 cm by 35 cm) that had been equilibrated with buffer A. The secondary alcohol dehydrogenase activity was eluted in the void volume. This DEAE-cellulose eluate was concentrated by ammonium sulfate fractionation. Material precipitating between 30 and 50% ammonium sulfate saturation was collected by centrifugation and dialyzed overnight against A. This fraction was further washed and filtered through an Amicon unit with XM 50 membrane. The concentrated fraction (6 ml) inside the Amicon unit was applied to an Affi-Gel Blue column (0.8 cm×18 cm) which had been equilibrated with buffer A for affinity chromatography. The column was washed overnight with buffer A (0.18 ml./min.) and then was eluted with buffer A containing 5 mM NAD. Each 1 ml. fraction was collected.
# The purified secondary alcohol dehydrogenase enzyme (SADH) may be used directly for converting C3 -C6 secondary alcohols to the corresponding methyl ketones by the procedures described above; however, a source of NAD^+ must be added to the reaction medium. One can determine the NAD-linked secondary alcohol dehydrogenase activity with a fluorescence spectrophotometer (Perkin Elmer, Model MPF 44A) by following the formation of reduced NAD (Ex 340 nm, Em 460 nm). The assay system (3 ml.) will typically contain: sodium phosphate buffer pH 7.0, 150 μmol; NAD 1.0 μmol; a given amount of enzyme preparation; and 20 μmol secondary alcohol. The reaction is started by the addition of secondary alcohol. One unit of SADH enzyme activity represents the reduction of one nmole NAD per minute.
# The effect of metal-chelating agents and thioreagents on the activity of the purified SADH enzyme were studied. […] The possibility of ethanol or n-propanol as an inhibitor was studied.
# [10] = tested on: methanol-grown Methylococcus capsulatus CRL M1 (NRRL B-11,219); experiment: Effect of metal-chelating agents and other inhibitors on production of 2-butanone by cell suspensions; type: cell-based; details: NRRLB11, read-out: Inhibition (%) of production of 2-butanone, 1 mM
# [11] = tested on: P(40) particulate fraction of Methylosinus sp. (CRL-15, NRRL B-11,202); experiment: Effect of inhibitors on propylene epoxidation and methane hydroxylation by P(40) fraction; type: biochemical; details: inhibitor 10^-3 M
# Experimental: The oxidation of methane and propylene by particulate [(P)40 and(P)80] fractions and soluble [S(80)] fraction was measured at 30° C. by estimating the production of methanol and propylene oxide, respectively. The reaction mixtures contained in 1.0 ml: 150 mM potassium phosphate buffer, pH 7.0 containing 5 mM MgCl2, 0.6 ml; 10 μmoles NADH, and cellular fraction.
# Reaction mixtures were contained in 10 ml vials at 4° C. Vials were sealed with rubber caps. The gaseous phase in the vials was removed using vacuum and then was replaced with a gas mixture of methane or propylene and oxygen at a 1:1, v/v ratio. Oxidation of other gaseous n-alkanes and n-alkenes was examined as described above. For liquid substrates, 10 μl of substrate was used directly. Vials were then incubated at 30° C. on a rotary shaker at 200 RPM.
# It has been reported that the oxidation of methane by cell suspensions of methane-utilizing bacteria was inhibited by various metal-binding or metal-chelating agents (Patel et al., J. Bacteriol. 126: 1017-1019 (1976)). […] (CRL-15, NRRL B-11,202) was examined.
# [12] = tested on: cell suspensions of C1 -utilizers; experiment: Optimal conditions and inhibition of 2-butanone production from 2-butanol by cell suspensions; type: cell-based
# From the text: The following summarizes tests conducted on the optimal conditions for the production of methyl ketones from C3 -C6 sec. alcohols.
# [13] = tested on: Methylococcus capsulatus (CRL Ml, NRRL B-11,219); experiment: Effect of inhibitors on epoxidation of propylene and hydroxylation of methane, cell-containing enzyme preparation; type: cell-based; details: Methylococcus capsulatus, NRRLB11, inhibitor 1 mM, 1 hour at 30° C.
# [14] = tested on: Methylosinus trichosporium OB3b (NRRL B-11,196); experiment: as above; type: cell-based; details: NRRLB11, inhibitor 1 mM, 1 hour at 30° C.
# [15] = tested on: Methylobacterium organophilum (CRL 26, NRRL B-11,222); experiment: as above; type: cell-based; details: NRRLB11, inhibitor 1 mM, 1 hour at 30° C.
# [16] = read-out: % Inhibition, Epoxidation
# [17] = read-out: % Inhibition, Hydroxylation
smiles,measurement,setting,value
C=CC [Propylene],Propylene Oxide Produced,"[1]; substrate competition, gas phase as labelled",4.3 μmoles/hr/mg. protein
same,Rate of Product Formation,[1],4.1 μ moles/hr/mg of protein
same,inhibition of the conversion of the n-alkanes to the sec. alcohols,[2],inhibit
same,oxygen consumed,[3],0.30 µmol
same,propylene consumed,[3],0.29 µmol
same,propylene oxide formed,[3],0.28 µmol
same,NADH Oxidized,[4],5.0 µmol
same,O2 Consumed,[4],4.8 µmol
same,Product formed,[4],4.5 µmol
C=CCCC [1-Pentene],epoxide product from the substrate,[5],did not produce any detectable epoxide product
same,Rate of Product Formation,[1],0 μ moles/hr/mg of protein
C1CCCCC1 [Cyclohexane],oxidative conversion rate of cyclic hydrocarbon (cyclohexane to cyclohexanol),[6],1.5 μmoles/2 hr./mg. protein
CCC(C)O (stereo not drawn) [2-butanol],NAD^+ Reduced,[7],5.9 µmol
same,Product formed,[7],5.7 µmol
same,oxidation by the purified secondary alcohol dehydrogenase,[7],catalyzed the oxidation
same,2-Butanol Consumed,"[8]; experiment 1, 10 min.",260 nmol
same,2-Butanol Consumed,"[8]; experiment 2, 20 min.",530 nmol
same,NAD Consumed,"[8]; experiment 2, 20 min.",540 nmol
same,substrate specificity of purified SADH,[9],highest
same,Km,[9]; read-out: Km values,250 µM
c1ccccc1 [benzene],oxidative conversion rate of cyclic hydrocarbon (cyclohexane to cyclohexanol),[6],no oxidative conversion was detected
C=CCCCC [hexene-1],epoxide product from the substrate,[5],did not produce any detectable epoxide product
"c1cnc2c(c1)ccc1cccnc12 [1,10-Phenanthroline]",inhibition at 1000 µM,[10],95%
same,"% Inhibition, Methane-Hydroxylating Activity",[11],90%
same,"% Inhibition, Propylene-Epoxidizing Activity",[11],93%
same,inhibition of production of 2-butanone from 2-butanol by cell suspensions of the strains tested,[12],inhibited
same,inhibition of secondary alcohol dehydrogenase activity,[7],strongly inhibited
same,inhibition of the conversion of the n-alkanes to the sec. alcohols,[2],inhibited
same,inhibition at 1000 µM,[13]; [16],95%
same,inhibition at 1000 µM,[13]; [17],95%
same,inhibition at 1000 µM,[14]; [16],90%
same,inhibition at 1000 µM,[14]; [17],92%
same,% inhibition of SADH activity,"[9]; purified SADH, each inhibitor 1 mM, measured spectrofluorometrically",95%
same,inhibition at 1000 µM,[15]; [16],90%
same,inhibition at 1000 µM,[15]; [17],90%
Cc1ccccc1 [toluene],oxidative conversion rate of cyclic hydrocarbon (cyclohexane to cyclohexanol),[6],no oxidative conversion was detected
